On the set-up of data set [1]: method as in PMID 9232516. Conditions: reported in the literature; cited from earlier work.
Data set [2] can be described thus: Shake-flask log D (n-octanol/DPBS). It is filed as physicochemical. Conditions: pH increased from 6.0 to 10.0. The protocol: Equal volumes of n-octanol and DPBS were mixed and shaken at room temperature for 24 h using an incubator shaker (Lab-Line Instruments, Inc., Melrose Park, IL, USA) to achieve mutual saturation. The pre-saturated n-octanol and DPBS phases were then carefully transferred into separate centrifuge tubes and centrifuged (Centrifuge 5430 R, Eppendorf AG, Hamburg, Germany) at 5000× g for 20 min to ensure complete phase separation.
Flu-Na solutions were prepared at a final concentration of 1 mg/mL by dissolving Flu-Na in pre-saturated DPBS, followed by pH adjustment to approximately 6, 7, 8, 9, and 10 using sodium hydroxide or hydrochloric acid solutions. […]
The concentrations of Flu-Na in both phases were measured at 492 nm using the microplate reader (SpectraMax iD5, Molecular Devices, San Jose, CA, USA). Calibration curve standards were prepared using DPBS adjusted to the corresponding pH values to ensure accurate quantification under each condition. The log D was calculated as the base-10 logarithm of the concentration ratio between the n-octanol phase and the aqueous phase.

Data set [3] has as its system porcine nasal mucosa. Put plainly: Flu-Na permeability across IPA-damaged porcine nasal mucosa (Franz diffusion cells). It is filed as in vitro ADME, Sus scrofa domesticus. How it is done:
To systematically investigate this issue, nasal mucosa tissues harvested from the same pig were immersed in 10%, 50%, or 100% IPA for 30 min to induce graded levels of chemical damage. A parallel control sample was incubated in DPBS under identical conditions. Flu-Na permeability was then measured as an indicator of mucosal integrity. This experiment was independently repeated in tissues from three different pigs to ensure reproducibility. Representative images of nasal mucosa following IPA-induced damage are shown in Figure 9, and the corresponding Papp values, normalized to a standardized mucosal thickness of 0.80 mm, are presented in Figure 10.
Tissues obtained from the same pig were used to evaluate the effects of different IPA concentrations and the DPBS control within a single experimental set. To ensure reproducibility, the entire experiment was independently repeated using tissues from three different pigs.
For each experimental set, three pieces of nasal mucosa tissue from the same pig were submerged in 3 mL of IPA at concentrations of 10%, 50%, or 100% for 30 min to induce graded levels of epithelial damage. A parallel control tissue sample from the same pig was submerged in 3 mL of DPBS under identical conditions. Following exposure, all tissues were thoroughly rinsed with DPBS to remove residual solvent and were immediately mounted in Franz diffusion cells for permeability testing.
Nasal mucosal permeability was evaluated using a Phoenix™ DB-6 Franz diffusion system (Teledyne Hanson Research, Los Angeles, CA, USA), equipped with a diffusion area of 1.0 cm^2 and a receptor volume of 10 mL. The nasal mucosa was mounted between the donor and receptor chambers, with the epithelial side facing the donor compartment. […]
The Flu-Na loading solution was prepared at a fixed concentration of 1 mg/mL by dissolving 25 mg of Flu-Na in 25 mL of DPBS using volumetric flasks. […] The supernatants were collected for microplate reader (SpectraMax iD5, Molecular Devices, San Jose, CA, USA) analysis.

Data set [4] can be described thus: Visual appearance of Flu-Na solutions at different pH values. Type of data set: physicochemical. Conditions: 1 mg/mL, pH 4.85. The protocol:
Solutions were prepared at a concentration of 1 mg/mL, and visual appearance was recorded after pH adjustment.

The nature of data set [5]: Ex vivo permeation across porcine nasal mucosa in Franz diffusion cells. It is filed as in vitro ADME, Sus scrofa domesticus. Conditions: pig. How it is done:
(§1) Nasal mucosa tissues were carefully dissected from the lower turbinates within the nasal cavity. Immediately after excision, the tissues were immersed in chilled DPBS to prevent desiccation and to preserve structural integrity. The samples were then cut into appropriate sizes, and mucosal thickness was measured using an electronic digital caliper (Fisher Scientific, Waltham, MA, USA) as described in previous work. […] The nasal mucosa was mounted between the donor and receptor chambers, with the epithelial side facing the donor compartment. DPBS was used as the receptor medium and maintained at 37 ± 0.5 °C under continuous stirring at 600 rpm. At predetermined time points (0.5, 1, 2, 3, 4, 5, 6, 7, and 8 h), 0.5 mL of sample was withdrawn from the receptor compartment and immediately replaced with fresh DPBS to maintain sink conditions. The melatonin loading solution was prepared by dissolving an appropriate amount of melatonin powder in 5 mL of DPBS, stirring for 15 min, and filtering through a 0.2 µm nylon membrane filter (Fisher Scientific, Waltham, MA, USA). […] At the start of the experiment, 0.5 mL of melatonin loading solution was added to the donor compartment. Receptor samples collected at each time point were mixed with an equal volume of acetonitrile, vortexed, and centrifuged (AccuSpin Micro17, Fisher Scientific, Waltham, MA, USA) at 10,000× g for 20 min. The resulting supernatants were collected for HPLC analysis. […] Receptor samples collected at each time point were centrifuged (AccuSpin Micro17, Fisher Scientific, Waltham, MA, USA) directly at 10,000× g for 20 min. The supernatants were collected for microplate reader (SpectraMax iD5, Molecular Devices, San Jose, CA, USA) analysis. The permeation curve is reported as percentage of drug permeated and was computationally corrected for the withdrawn volume using an Excel (Microsoft, Redmond, WA, USA) add-in program DDSolver 1.0 [53]. Papp were calculated as described in previous work. Numerical simulations were performed using COMSOL Multiphysics® version 6.2 (COMSOL Inc., Burlington, MA, USA), following the methodology established in our previous study. The simulations were based on Fick’s law of diffusion, describing solute concentration changes over time and space within a defined three-dimensional geometry. The “Transport of Diluted Species” physics interface was employed to simulate drug diffusion dynamics, while adsorption effects were incorporated to account for drug retention within the nasal mucosa. […] To address this, the simulation model was first fitted to experimentally obtained permeation profiles to extract key transport parameters. These parameters were subsequently used to normalize each permeation curve to a standardized mucosal thickness of 0.80 mm. Thickness correction minimized the impact of variability and enabled more accurate and consistent comparisons across experimental conditions.

Details of data set [6]: method as in doi:10.2343/geochemj.2.0226. To be noted: cited from earlier work.
Data set [7] has as its system porcine nasal mucosa. Put plainly: Ex vivo permeation across porcine nasal mucosa in Franz diffusion cells. Type of data set: in vitro ADME, Sus scrofa domesticus. The protocol: as §1
Setting [8] is: different-pig (inter-individual) group, n = 3, simulation-based normalization, read-out: mean Papp after normalization to standardized thickness of 0.80 mm.
Setting [9] is: same-pig (intra-individual) group, n = 3, simulation-based normalization, read-out: mean Papp after normalization to standardized thickness of 0.80 mm.

Molecules are shown by their SMILES. Where two headings read alike, the source gives them in different places.

With `O=C([O-])c1ccccc1-c1c2ccc(=O)cc-2oc2cc([O-])ccc12.[Na+].[Na+]` [Flu-Na, Fluorescein sodium salt], the log partition coefficient (log P) in data set [1] was −0.67 to −1.52. The “log D (shake-flask), pH dependency” value in data set [2] was “progressively more negative”. Also, in the data set with porcine nasal mucosa [3] (10% IPA as positive control, groups from different donor pigs, unpublished data), the “Flu-Na permeability (Papp) vs DPBS negative control, preliminary study” value was “paradoxical decrease”. Further, in the data set with porcine nasal mucosa [3] (escalating IPA concentrations (10%, 50%, and 100%), 30 min), the “trend of Papp values with IPA concentration” value was “general trend of increasing Papp values”. In addition, in the data set with porcine nasal mucosa [3] (mucosa immersed in 10% IPA for 30 min, same pig, normalized to 0.80 mm, three pigs), the “Flu-Na permeability (Papp) vs DPBS negative control” value was “lower”. For the same compound, the “visual appearance of solution” value in data set [4] is reported as “precipitation observed”. Moreover, the apparent permeability coefficient (Papp) at 8 h was 7.33 ± 1.6 ×10⁻⁶ cm/s in data set [5] (setting [8]) and 5.28 ± 0.18 ×10⁻⁶ cm/s in data set [5] (setting [9]).

On to `O=C1OC2(c3ccc(O)cc3Oc3cc(O)ccc32)c2ccccc21` [fluorescein], for which the lipophilicity (log P) is reported as “approximately 2.78” in data set [6] (pH 4.29) and −0.08 in data set [6] (pH 7.5).

For `COc1ccc2[nH]cc(CCNC(C)=O)c2c1` [melatonin, Melatonin], the Papp at 8 h in data set [5] (different-pig (inter-individual) group, n = 3, 8 h Franz diffusion, read-out: mean Papp before thickness normalization) is 14.6 ± 1.42 ×10⁻⁶ cm/s; in data set [5] (setting [8]) it was 10.5 ± 0.42 ×10⁻⁶ cm/s; in data set [5] (setting [9]), 10 ± 0.78 ×10⁻⁶ cm/s. Also, in data set [5] (same-pig (intra-individual) group, n = 3, 8 h Franz diffusion, read-out: mean Papp before thickness normalization), the Papp at 8 h, 1008 μg/mL turned out to be 14.1 ± 3.47 ×10⁻⁶ cm/s. Also, the “decrease of CV of Papp by normalization” value was determined as 5.7% with porcine nasal mucosa [7] (different-pig group) and 16.8% in the data set with porcine nasal mucosa [7] (same-pig group).

By log P is commonly meant a log measure of how a compound divides between an organic and an aqueous phase. As a reminder, the Papp is a coefficient for how fast a substance crosses the barrier.

These data come from article PMC12195738 (Pharmaceuticals, 2025).
